Measurements: patent US7709516B2, “Helix 12 directed non-steroidal antiandrogens” (Endorecherche, Inc., priority 2005, dated 2010)
Like-named read-outs stand apart in the source and are kept apart here.

Legend:
[1] = system: rat prostate, seminal vesicle, levator ani muscle; assay: Systemic antiandrogenic activity in orchidectomized immature male rats with DHT implant; format: in vivo; settings: for Prostate % inhibition / Lev Ani % inhibition / SV % inhibition: Table 2; for inhibition in vivo at 0.5 mg: Rattus norvegicus, 168 h
Human Androgen Receptor = target: T1, Human Androgen Receptor (Homo sapiens, UniProt P10275); assay: Androgen receptor binding assay ([3H]R1881, HAP) in cytosol of HEK-293 cells transfected with hAR; settings: relative to R1881 = 100, transfected cells
T1 sequence (P10275 1-920): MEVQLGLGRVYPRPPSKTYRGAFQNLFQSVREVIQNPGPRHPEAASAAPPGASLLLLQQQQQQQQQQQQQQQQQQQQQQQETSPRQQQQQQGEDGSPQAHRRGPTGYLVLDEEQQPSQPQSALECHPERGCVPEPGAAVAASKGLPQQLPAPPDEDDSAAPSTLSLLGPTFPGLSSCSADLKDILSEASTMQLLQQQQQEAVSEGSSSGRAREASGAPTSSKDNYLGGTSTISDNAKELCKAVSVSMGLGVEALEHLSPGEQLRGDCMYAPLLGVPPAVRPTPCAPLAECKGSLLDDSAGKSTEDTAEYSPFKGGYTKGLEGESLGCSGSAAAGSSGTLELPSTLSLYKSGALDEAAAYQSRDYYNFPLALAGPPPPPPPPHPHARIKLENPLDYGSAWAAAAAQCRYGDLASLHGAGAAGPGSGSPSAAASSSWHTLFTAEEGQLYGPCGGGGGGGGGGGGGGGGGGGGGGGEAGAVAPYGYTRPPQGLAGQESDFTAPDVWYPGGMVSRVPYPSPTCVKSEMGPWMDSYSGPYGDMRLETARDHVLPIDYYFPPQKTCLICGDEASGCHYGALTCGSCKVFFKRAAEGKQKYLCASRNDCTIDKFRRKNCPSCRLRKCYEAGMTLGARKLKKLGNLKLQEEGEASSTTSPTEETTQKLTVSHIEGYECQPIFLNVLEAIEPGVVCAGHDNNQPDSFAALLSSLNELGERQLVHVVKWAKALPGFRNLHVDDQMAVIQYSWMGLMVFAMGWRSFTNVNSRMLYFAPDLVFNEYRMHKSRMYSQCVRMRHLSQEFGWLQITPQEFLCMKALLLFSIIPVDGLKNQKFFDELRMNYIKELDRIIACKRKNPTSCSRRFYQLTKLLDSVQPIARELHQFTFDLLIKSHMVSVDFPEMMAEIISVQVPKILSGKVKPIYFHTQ

[2] = system: Shionogi mouse mammary carcinoma cells; assay: Androgenic/antiandrogenic activity: inhibition of DHT-stimulated Shionogi cell number; format: cell-based; settings: DHT-stimulated Shionogi cell number
[3] = rat +DHT, s.c. or p.o. (route not marked), 0.5 mg/animal daily 7 days
[4] = rat +DHT, s.c. or p.o. (route not marked), levator ani, 0.5 mg/animal daily 7 days
[5] = rat +DHT, s.c. or p.o. (route not marked), seminal vesicle, 0.5 mg/animal daily 7 days
[6] = Mus musculus, read-out: Shionogi Antiandrogenic Activity IC50, Table 2
[7] = read-out: Lev Ani % inhibition, Table 2, rat +DHT, s.c. or p.o. (route not marked), levator ani, 0.5 mg/animal daily 7 days
[8] = read-out: Prostate % inhibition, Table 2, rat +DHT, s.c. or p.o. (route not marked), 0.5 mg/animal daily 7 days
[9] = read-out: SV % inhibition, Table 2, rat +DHT, s.c. or p.o. (route not marked), seminal vesicle, 0.5 mg/animal daily 7 days
[10] = read-out: Lev Ani % inhibition, Table 1, rat +DHT, s.c. or p.o. (route not marked), levator ani, 0.5 mg/animal daily 7 days
[11] = read-out: Prostate % inhibition, Table 1, rat +DHT, s.c. or p.o. (route not marked in cell), 0.5 mg/animal daily 7 days
[12] = read-out: SV % inhibition, Table 1, rat +DHT, s.c. or p.o. (route not marked), seminal vesicle, 0.5 mg/animal daily 7 days
[13] = Mus musculus, read-out: Shionogi Antiandrogenic Activity IC50, Table 1

`Cc1cc(CN2CCCC2)ccc1OCCC1(O)CCN(c2ccc(C#N)c(Cl)c2)CC1` [EM-7678] was tested, and the Prostate % inhibition [1, 3] was 7%, the “Lev Ani % inhibition” value [1, 4] was 9% and the SV % inhibition [1, 5] was 10%. For the same compound, the “Human Androgen Receptor Binding (%) RBA R1881 = 100” value (Human Androgen Receptor; Table 2) was 3.5% and the IC50 [2, 6] was 13.8 nM.

`CCC(NC1CCCCC1)c1ccc(COCCN2CCN(c3ccc(C#N)c(C(F)(F)F)c3)CC2)cc1` (stereo not shown) [EM-7727] showed an inhibition in vivo at 0.5 mg [1, 7] of 0%, an inhibition in vivo at 0.5 mg [1, 8] of 0% and an inhibition in vivo at 0.5 mg [1, 9] of 8%. For the same compound, the “Human Androgen Receptor Binding (%) RBA R1881 = 100” value (Human Androgen Receptor; Table 2) was less than 1.0% and the IC50 [2, 6] was 70.4 nM.

With `Cc1cc(CN2CCCC2)ccc1OCCC1(O)CCN(c2ccc(C#N)c(Cl)c2)CC1` [EM-7735] the Prostate % inhibition [1, 3] was 0%, the “Lev Ani % inhibition” value [1, 4] was 29% and the SV % inhibition [1, 5] was 23%. For the same compound, the “Human Androgen Receptor Binding (%) RBA R1881 = 100” value (Human Androgen Receptor; Table 2) was 9.6% and the IC50 ([2]; read-out: Shionogi Antiandrogenic Activity IC50, Table 2) was 7.9 nM.

`CCC(c1ccc(OCCC2(O)CCN(c3ccc(C#N)c4ccccc34)CC2)cc1)N1CCCC1` (stereo not shown) [EM-7738] was tested, and the inhibition in vivo at 0.5 mg ([1]; read-out: Lev Ani % inhibition) was 10%, the inhibition in vivo at 0.5 mg ([1]; read-out: Prostate % inhibition) was 0% and the inhibition in vivo at 0.5 mg ([1]; read-out: SV % inhibition) was 16%. The “Human Androgen Receptor Binding (%) RBA R1881 = 100” value (Human Androgen Receptor; Table 2) was 10.5% and the IC50 ([2]; Mus musculus, Table 2, read-out: Shionogi Antiandrogenic Activity IC50) was 18.3 nM.

In the case of `Cc1cc(CN2CCCC2)ccc1OCCCN1C(=S)N(c2ccc(C#N)c3ccccc23)C(=O)C1(C)C` [EM-7775], the inhibition in vivo at 0.5 mg [1, 10] is reported as 10%, the inhibition in vivo at 0.5 mg [1, 11] is reported as 0% and the inhibition in vivo at 0.5 mg [1, 12] is reported as 25%. For the same compound, the “Human Androgen Receptor Binding (%) RBA R1881 = 100” value (Human Androgen Receptor; Table 1) was 13.2% and the IC50 [2, 13] was 60.5 nM.

`Cc1cc(CN2CCCC2C)ccc1OCCC1(O)CCN(c2ccc(C#N)c(Cl)c2)CC1` (stereo not shown) [EM-7791] showed an inhibition in vivo at 0.5 mg [1, 7] of 14%, an inhibition in vivo at 0.5 mg [1, 8] of 0% and an inhibition in vivo at 0.5 mg [1, 9] of 29%. The “Human Androgen Receptor Binding (%) RBA R1881 = 100” value (Human Androgen Receptor; Table 2) was 1.0% and the IC50 [2, 6] was 20.5 nM.

`CCC(CC)NC(CC)c1ccc(COCCN2CCN(c3ccc(C#N)c(C(F)(F)F)c3)CC2)cc1` (stereo not shown) [EM-7792] gave an inhibition in vivo at 0.5 mg [1, 7] of 7%, an inhibition in vivo at 0.5 mg [1, 8] of 21% and an inhibition in vivo at 0.5 mg [1, 9] of 0%. The “Human Androgen Receptor Binding (%) RBA R1881 = 100” value (Human Androgen Receptor; Table 2) was less than 1.0% and the IC50 [2, 6] was 82.9 nM.

In the case of `CC1(C)C(=O)N(c2ccc(C#N)c(Cl)c2)C(=S)N1CCCOc1ccc(CNC2CCCC2)cc1` [EM-7819], the inhibition in vivo at 0.5 mg [1, 10] is reported as 44%, the inhibition in vivo at 0.5 mg [1, 11] is reported as 54% and the inhibition in vivo at 0.5 mg [1, 12] is reported as 80%. For the same compound, the “Human Androgen Receptor Binding (%) RBA R1881 = 100” value (Human Androgen Receptor; Table 1) was 12.9% and the IC50 [2, 13] was 8.3 nM.

For `CN(C)Cc1ccc(OCCCN2C(=S)N(c3ccc(C#N)c(Cl)c3)C(=O)C2(C)C)cc1` [EM-7821], the inhibition in vivo at 0.5 mg [1, 10] was 32%, the inhibition in vivo at 0.5 mg [1, 11] was 50% and the inhibition in vivo at 0.5 mg [1, 12] was 75%. The “Human Androgen Receptor Binding (%) RBA R1881 = 100” value (Human Androgen Receptor; Table 1) was 6.1% and the IC50 [2, 13] was 5.2 nM.

For `CC(C)NCc1ccc(OCCCN2C(=S)N(c3ccc(C#N)c(Cl)c3)C(=O)C2(C)C)cc1` [EM-7822], the inhibition in vivo at 0.5 mg [1, 10] was 60%, the inhibition in vivo at 0.5 mg [1, 11] was 53% and the inhibition in vivo at 0.5 mg [1, 12] was 82%. For the same compound, the “Human Androgen Receptor Binding (%) RBA R1881 = 100” value (Human Androgen Receptor; Table 1) was 4.9% and the IC50 [2, 13] was 5.9 nM.

For `CC(C)NCc1ccc(OCCCN2C(=S)N(c3ccc(C#N)c(C(F)(F)F)c3)C(=O)C2(C)C)nc1` [EM-7848], the inhibition in vivo at 0.5 mg [1, 10] was 68%, the inhibition in vivo at 0.5 mg [1, 11] was 51% and the inhibition in vivo at 0.5 mg [1, 12] was 86%. For the same compound, the “Human Androgen Receptor Binding (%) RBA R1881 = 100” value (Human Androgen Receptor; Table 1) was 0.5% and the IC50 [2, 13] was 11.4 nM.

Compound `CC(C)NCc1ccc(OCCCN2C(=S)N(c3ccc(C#N)c(C(F)(F)F)c3)C(=O)C2(C)C)c(F)c1` [EM-7918] has an inhibition in vivo at 0.5 mg [1, 10] of 53%, an inhibition in vivo at 0.5 mg [1, 11] of 44% and an inhibition in vivo at 0.5 mg [1, 12] of 64%. For the same compound, the “Human Androgen Receptor Binding (%) RBA R1881 = 100” value (Human Androgen Receptor; Table 1) was 16.9% and the IC50 [2, 13] was 6.6 nM.

Compound `CC(C)NCc1ccc(OCCCN2C(=S)N(c3ccc(C#N)c(C(F)(F)F)c3)C(=O)C2(C)C)c(Cl)c1` [EM-7919] has an inhibition in vivo at 0.5 mg [1, 10] of 9%, an inhibition in vivo at 0.5 mg [1, 11] of 28% and an inhibition in vivo at 0.5 mg [1, 12] of 53%. For the same compound, the “Human Androgen Receptor Binding (%) RBA R1881 = 100” value (Human Androgen Receptor; Table 1) was 29.0% and the IC50 [2, 13] was 6.7 nM.

In the case of `CC(C)NCc1ccc(OCCCN2C(=S)N(c3ccc(C#N)c(C(F)(F)F)c3)C(=O)C2(C)C)cn1` [EM-7926], the inhibition in vivo at 0.5 mg [1, 10] is reported as 14%, the inhibition in vivo at 0.5 mg [1, 11] is reported as 44% and the inhibition in vivo at 0.5 mg [1, 12] is reported as 72%. The “Human Androgen Receptor Binding (%) RBA R1881 = 100” value (Human Androgen Receptor; Table 1) was 1.5% and the IC50 [2, 13] was 7.9 nM.
